Measured values: patent US20240415858A1, “PROMOTING MYELINATION BY N-ACETYLGLUCOSAMINE AND MODULATION OF N-GLYCAN BRANCHING” (THE REGENTS OF THE UNIVERSITY OF CALIFORNIA, priority 2021, published 2024)

Legend:
[1] = tested on: mouse neural stem cells (NSC) derived from the medial ganglionic eminence of E12.5 mouse embryos; assay: Oligodendrogenesis from mouse neural stem cells in vitro (flow cytometry, immunofluorescence); format: cell-based; conditions: NSC in PDGF-AA differentiation media, 48 hrs
Description: Mice were bred and utilized as approved by the University of California, Irvine Institutional Animal Care and Use Committee. Dorsal forebrain cortical tissue was dissected from the medial ganglionic eminence (MGE) at embryonic day 12.5 (E12) of CD1 mice (Charles River) or Mgat5−/− C57BL/6 mice and their wildtype littermates and placed in dissection buffer comprising PBS, 0.6% glucose, and 50 U/mL Pen/Strep. Tissue from multiple embryos within the same litter were pooled, and a subsequent culture from a single litter was considered a biological repeat. The tissue was dissociated using 0.05% Trypsin-EDTA at 37° C. for 10 min, followed by treatment with soybean trypsin inhibitor (Life Technologies). Dissociated cells were re-suspended in proliferation medium comprising DMEM, 1× B27, 1× N2, 1 mM sodium pyruvate, 2 mM L-glutamine, 1 mM N-acetylcysteine, 20 ng/mL EGF (PeproTech), 10 ng/mL bFGF (PeproTech), and 2 μg/mL heparin and seeded at 150,000 cells/mL (non-tissue culture treated plastic plates) and grown as non-adherent spheres. Cell cultures were passaged approximately every 3 days using enzyme-free NeuroCult Chemical Dissociation Kit (Mouse) (StemCell Technologies). Cultures were passaged at least once prior to experimental use. For experiments, passaged cells were cultured in proliferation media (bFGF and EGF) or differentiation media (bFGF (10 ng/ml) and PDGF-AA (10 ng/ml); Life technologies) for 48 hours with or without the presence of GIcNAc (Ultimate Glucosamine, Wellesley Therapeutics) or kifunensine (GlycoSyn). Neurospheres were dispersed using the enzyme-free NeuroCult kit before being analyzed by flow cytometry using one or more of the following antibodies: anti-CD140a/PDGF-RA PE conjugate (1:200, A15785, Molecular Probes), anti-04 Alexa Fluor 488 conjugated (1:200, FAB1326G, RnD systems), Anti-GaIC Alexa Fluor 647 1:200, MAB342-AF647, Millipore), Anti-Olig2 (1:200, AB9610, Millipore) with anti-rabbit Alexa Fluor 488 (1:200, thermofisher).
For neural stem cell (NSC) immunofluorescence, whole neurospheres were seeded onto laminin-coated coverslips (Neuvitro) in proliferation medium. After 24 hours, proliferation media was removed and replaced with differentiation medium (same components as proliferation medium but excluding EGF, bFGF, and heparin) to induce differentiation. For analysis of mouse brains, brains were incubated in 30% sucrose for at least 72 hours, embedded in OCT (Tissue-tek), frozen for at least 48 hours at −80° C., and then cut at 40 microns on a cryostat. Multiple sections from −1 bregma to −2.5 bregma were then stained with antibodies for MBP (1:100; MAB386, Millipore), Olig2 (1:200; AB9610, Millipore), CC1 (1:100; OP90, Millipore), degraded MBP (1:200, AB5864, Millipore) and Amyloid Precursor Protein (APP, 1:200; clone 22C11). After overnight incubation with primary antibody, tissues were washed and incubated with secondary antibodies: goat anti-rat Alexa-fluor 488 (1:200, Thermofisher), goat anti-rabbit TxRd (1:200, Thermofisher). APP is a marker for neuro-axonal damage while co-staining for CC1 and Olig2 are markers of mature oligodendrocytes. In order to examine the amount of myelin, slices were incubated in Fluoromyelin (1:300; F34651, Thermofisher) for 45 minutes. Images were acquired on a Keyence fluorescence microscope. Mean fluorescence intensity of the medial corpus callosum was measured using ImageJ.
Oligodendrogenesis were examined in vitro using mouse neural stem cells (NSC) derived from the medial ganglionic eminence of E12.5 mouse embryos, where OPC's first appear. […] Consistent with increased PDGFRα surface expression, GIcNAc also promoted pre-oligodendrocyte differentiation as evidenced by augmented expression of Oligodendrocyte Transcription Factor (OLIG2) and increased numbers of 04 and GaIC positive cells (FIGS. 1A, 1B and 1C, FIGS. 5B and 5C). […]

[2] = Brain uptake of oral [U13C]GIcNAc, LC-MS/MS of perfused brains

Compound	PDGFRα surface expression [1]	number of O4 cells induced by PDGF-AA differentiation media [1]	UDP-[U13C]-HexNAc in brain ([2]; suckling pups of treated lactating mothers)	UDP-[U13C]-HexNAc in brain ([2]; treated adult female mice, 1 mg/mL in drinking water, perfused brains)
O=C1N[C@@H]2[C@@H](O)[C@@H](O)[C@H](O)[C@@H](CO)N2C1=O [kifunensine, reference compound]	significantly reduced	significantly reduced		
N-Acetyl-D-[UL-^13C6]glucosamine [[U^13C]GIcNAc]			identified	identified
